Three molecules from US20140315754A1, “METHODS AND COMPOSITIONS FOR ASSESSING AND TREATING CANCER” (The Board of Regents of the University of Texas System, priority 2013, published 2014) can be followed below.

In series [1] the test system is 5′ promoter of DCLK1 gene (L-DCLK1 expression). The experiment in a line: RT-PCR expression of L/S DCLK1 in HCT-116 cells before or after 5-Aza-Cytidine. It counts as cell-based, human. The note with it: FIG. 12B. The text has this:
FIG. 12 (A) Methylation of CpG sites in 5′-promoter of DCLK1-gene in cell lines/human samples; NC=normal colon; CRC=colorectal cancer. (B) Expression of L/S DCLK1 in HCT-116 cells before (−) or after (+) treatment with 5-Aza-Cytidine by RT-PCR.
Recent reports have confirmed DNA methylation of 5′ promoter of DCLK1 gene in CRCs (Vedeld et al. Epigenetics 2014, 9(3).30). Thus, DNA methylation of 5′ promoter leads to epigenetic silencing and loss of L expression in cancer cells/tumors.

Series [2] deals with DCLK1 positive cancer cells (CSCs). Description: In vitro relapse assay (spheroid re-growth from cancer stem cells). It counts as cell-based. The source says:
In certain embodiments an expression vector can be used to provide an inhibitory RNA to a cell in vitro or in vivo. […] Thus accumulating evidence from literature and from our laboratory strongly supports a critical role of DCLK1 in cancer stem cell biology.

In the next series the test system is COL3A1 promoter. The experiment in a line: Promoter activity of COL3A1 constructs in HCT116 cells. The series is classed as cell-based, human. The note with it: C-Luciferase reporter, FIG. 14. The source says: FIG. 14 HTS Bioassay: (A) RT-PCR analysis of COL3A1 in ShC and ShD clones (5′upstream nucleotide sequence of COL3A1 gene is provided in SEQ ID NO:10). (B) The map of the promoter constructs fused to secretable Cypridina Luciferase (C-Luciferase). (C) The flow diagram of the method used to measure the promoter activity of COL3A1 constructs in HCT116 cells. (D) The promoter activity of COL3A1 constructs in HCT116 cells.
The inventors developed bioassays for […] (HTS), using promoter-reporter constructs of genes identified as being down stream of DCLK1-S, but not DCLK1-L (FIG. 15). As an example of the bioassays developed, the inventors generated promoter-reporter constructs of COL3A1 gene in pCLuc-BASIC-2 vector, based on published sequence of the Col3A1 gene (FIG. 14A-14C) and transiently transfected ShC/ShD clones of HCT-116 cells, as per protocol shown in FIG. 14D. […] Data obtained from the HTS assays with the specific bioassays will help identify specific molecules from available chemical libraries, which will then allow the development of safe and effective drugs for inhibiting tumorigenic/metastatic potential of cancer stem cells, while sparing the functions of normal stem cells in intestinal crypts, as a non-toxic treatment strategy for colorectal/pancreatic cancers, and other cancers as well, which are found to be dependent on the expression of DCLK1-S.

For `Nc1ncn([C@@H]2O[C@H](CO)[C@@H](O)[C@H]2O)c(=O)n1` [5 aza cytidine], the “expression of L-DCLK1” value in series [1] is listed as “re-expression of L-DCLK1”.
For the molecule `COc1cc(/C=C/C(=O)CC(=O)/C=C/c2ccc(O)c(OC)c2)ccc1O` [curcumin], the relapse/re-growth of spheroids entry in series [2] was “underwent autophagic survival and re-grew (relapse) as spheroids”.
Take “shRNA: DCLK1 targeting shRNA; shrna sequence ATCGTTCTGTTATTGTAGC in pGZIP Lentiviral vector (ShD clones) (pGZIP lentiviral vector)”: the “promoter activity of COL3A1 constructs” value in the series on COL3A1 promoter was “loss of promoter activity”. Further, in series [2], the relapse/re-growth of spheroids entry is on record as “eliminated relapse/re-growth of spheroids”.
